In the NIST ThermoML archive (doi:10.1021/acs.jced.5b00192):
± gives the expanded uncertainty stated by the source.

Experiments:
[1] = Molar enthalpy of transition or fusion; details: DSC
[2] = DTA

Molar enthalpy of transition or fusion ([1]; Crystal 1): 4.79 ± 0.179 kcal/mol | Molar enthalpy of transition or fusion ([1]; Crystal 2): 1.19 ± 0.0454 kcal/mol | Normal melting temperature ([2]; Crystal 1): 195.38 ± 1.5 °C | Triple point temperature ([2]; Crystal 2): 435.39 ± 0.86 K
Structure (SMILES): O=C1c2cccc(O)c2C(=O)c2c(O)cccc21 [1,8-dihydroxyanthraquinone]
